Laboratory results: US20260365698A1, “STAPLED PEPTIDES FOR SENSITIZATION OF CANCER TO TREATMENT” (Purdue Research Foundation, priority 2022, published 2026)
Entries after “also recorded” stand apart in the source; their conditions may differ. Bridge positions count the residues as written; N and C are the ends. Square brackets hold non-standard residues; d marks the D form. Peptide text beside a SMILES is read from it. S5 = C=CCCC[C@](C)(N)C(=O)O

Tests used:
HEK-293T cells = assay: Toxicity to the cells in the luciferase assay; format: cell-based; settings: 16 hours, listed as NIS
Protocol: (§1) The peptides from Example 1 were screened for Nrf2 inhibition using a previously developed dual luciferase assay. Ren et al., Brusatol enhances the efficacy of chemotherapy by inhibiting the Nrf2-mediated defense mechanism, Biological Sciences 108(4): 1433-1438 (2011). Briefly, HEK-293T cells stably expressing ARE-firefly luciferase and TK-Renilla luciferase were used. The cells were treated with different concentrations of compounds N1 (SEQ ID NO: 3), N1 S (SEQ ID NO: 6), N2 (SEQ ID NO: 4), N2S (SEQ ID NO: 7), N3 (SEQ ID NO: 5), and N3S (SEQ ID NO: 8) for 16 hours. The cells were lysed in 1× passive lysis buffer, and both firefly luciferase and Renilla luciferase activities were measured using the Promega Dual-Luciferase™ Reporter (DLR™) Assay System and a luminometer (Turner Biosystems 20/20^n Luminometer). The samples were in triplicate for all concentrations of compounds (n=3).

[1] = tested on: thioredoxin reductase 1 (TrxR1) in A549 cells; assay: Western blot, TrxR1 expression; format: cell-based; settings: 72 hours
Protocol: After confirming the in vitro activity of NIS, its mechanism in a cellular context was examined. Western blots were carried out in the A549 non-small cell lung cancer cell line to show the effects of N1S inhibition on the protein expression of Nrf2-regulated proteins. Briefly, A549 cells were seeded in 6-well plates at a concentration of 2×10^5 cells/ml in 2.5 ml. Cells were treated the next day with either peptide at the desired concentration or DMSO. After a 72-hour incubation, cells were collected by trypsinization and centrifugation. Pellets were washed with PBS three times before the pellet was resuspended in 250 μL of RIPA buffer containing protease inhibitor and kept on ice for 30 minutes with intermittent vortex. The cells were then spun at 16,000 g for 5 minutes, and the supernatant was collected. Protein concentration of lysate was normalized with Pierce BCA Protein Assay Kit (Thermo Fisher Scientific, Waltham, MA). Equal volumes of lysate were mixed with 2× Laemmli sample buffer before separating on 4-15% Mini Protean TGX SDS-PAGE (Bio-Rad Laboratories, Hercules, CA). […]
ImageJ was used for quantification of all bands. Primary antibodies: TrxR1 (Santa Cruz Biotechnology, Dallas, TX), sc-28321, 1:100 dilution (~55 kDa band analyzed); j-actin (Cell Signaling Technology, Inc., Danvers, MA), #3700, 1:1000. […]

Hemolysis assay = format: cell-based; settings: red blood cells
Protocol: (§2) Finally, a hemolysis assay was performed based on a method described in Hostetler et al. (2021), supra. The peptides were tested at a final concentration of 100 μM and an average of 0.3% hemolysis was observed (data not shown).

red blood cells = assay: Hemolysis assay; format: cell-based; settings: 100 μM
Protocol: as §2

Nrf2 = assay: Dual luciferase assay, NQO1-ARE firefly / TK-Renilla reporter; format: cell-based; settings: HEK-293T cells; for inhibition of Nrf2 activity: 16 hours, 50 μM in FIG. 4A
Protocol: The results are averages from three replicates.
as §1

Nrf2/MafG heterodimer = Nrf2/MafG heterodimer (Homo sapiens, UniProt O15525); assay: Split luciferase assay with purified MafG and Nrf2; format: biochemical; settings: in vitro, FIG. 6A; listed as NIS
Sequence of Nrf2/MafG heterodimer (O15525 whole entry, one chain of several): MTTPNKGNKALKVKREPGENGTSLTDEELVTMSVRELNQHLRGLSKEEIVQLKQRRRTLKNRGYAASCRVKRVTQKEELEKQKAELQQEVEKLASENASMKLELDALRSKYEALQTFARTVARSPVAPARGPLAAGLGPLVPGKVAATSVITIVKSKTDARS
Description: Data shown are from three technical replicates with standard error. The data are representative of three independent experiments. *p<0.05, **p<0.01, ***p<0.001, student's T-test compared to dimethyl sulfoxide (DMSO).

A549 cells = assay: Confocal microscopy of FITC-labeled peptides, cell permeability; format: cell-based
Protocol: To determine whether this was a result of poor cell permeability by compounds N2S and N3S, fluorophore labeled versions of these peptides were generated, and confocal microscopy was used to determine the abilities of these peptides to enter cells (FIG. 5C).
Briefly, A549 cells at 9.5×10^4 cells/ml in 600 μl media were plated on 10 mm glass-bottomed, 24-well plates (Chemglass Life Sciences Cell Culture Plate, 24-Well, Fisher Scientific, Waltham, MA) and cultured for overnight at 37 °C, 5% CO2, in complete growth medium (RPMI supplemented with 10% fetal calf serum, L-glutamine, and non-essential amino acids). The next day, cells were treated with fresh, pre-warmed complete growth medium supplemented with the desired FITC-labeled peptide or DMSO vehicle control at a final concentration of 100 μM FITC labeled peptide and 1% DMSO. After 90 minutes of treatment, cells were washed three times in warm PBS to remove excess peptide from the cell surface and left in modified Krebs-Ringer buffer solution [KRBH: 134 mM NaCl. 3.5 mM KCl. 1.2 mM KH2PO4, 0.5 mM MgSO4, 1.5 mM CaCl2), 5 mM NaHCO3, 10 mM HEPES (pH 7.4)] containing Hoechst stain at 1 μg/ml. Cells were immediately analyzed under a Nikon A1 confocal microscope (Resonant). The images were taken at 20× magnification with fluorescence excitation wavelengths at 409 for the Hoechst and 488 for the FITC. Images were processed using NIS-Elements AR. Dietrich et al., Cell permeable stapled peptide inhibitor of Wnt signaling that targets 0-catenin protein-protein interactions, Cell Chemical Biology 24(8): 958-968.e5 (2017); Dougherty et al., Enhancing the cell-permeability of stapled peptides with a cyclic cell-penetrating peptide, J Medicinal Chemistry 62(22): 10098 (2019).

inhibition of Nrf2 activity (Nrf2): inhibit Nrf2 | inhibition of Nrf2 activity (Nrf2; listed as NIS): most potent inhibition of Nrf2 activity | cellular and nuclear permeability (A549 cells; FITC-labeled peptide, 100 μM, 90 minutes, A549 cells): good | entry into cells (A549 cells; summary statement): can enter cells
Structure (SMILES): CC[C@H](C)[C@H](NC(C)=O)C(=O)N[C@H](C(=O)N[C@@H](CCC(=O)O)C(=O)N[C@@H](CC(C)C)C(=O)N[C@@H](CCC(=O)O)C(=O)N[C@@]1(C)CCCC=CCCC[C@@](C)(C(=O)N[C@@H](CC(C)C)C(=O)N[C@@H](CCCCN)C(=O)N[C@@H](CC(=O)O)C(=O)N[C@@H](CCC(=O)O)C(=O)N[C@@H](CCCCN)C(=O)N[C@@H](CCC(=O)O)C(N)=O)NC(=O)[C@H](CC(=O)O)NC(=O)[C@H](CC(C)C)NC(=O)[C@H](CC(=O)O)NC1=O)C(C)C [N1S] (Ac-IVELE[S5]DLD[S5]LKDEKE-NH2; staple 6-10)
toxicity to the cells (HEK-293T cells): no toxicity; also recorded: without showing toxicity | TrxR1 protein expression [1]: decrease | hemolysis at 100 µM (Hemolysis assay): 0.3% | toxicity to red blood cells (red blood cells): no toxicity | dose response for Nrf2 inhibition (Nrf2; FIG. 4B): showed a dose-response curve for Nrf2 inhibition | inhibition of dimerization of Nrf2 with MafG (Nrf2/MafG heterodimer): inhibiting dimerization of Nrf2 with MagF in vitro in a dose-dependent manner; also recorded: inhibits its dimerization with Nrf2
